Consider five molecules from publication PMC5761851, “Application of a phenotypic drug discovery strategy to identify biological and chemical starting points for inhibition of TSLP production in lung epithelial cells” (PLoS ONE, 2018).

Common to all, as to experiment: kinase selectivity panel
Common to all, as to assay type: biochemical

One test concerns the target T1, Axl (Homo sapiens, UniProt P30530).
T1 construct: purchased Eurofins Pharma Discovery Services (KinaseProfiler; Cerep BioPrint panel)
T1 sequence (P30530 26-894): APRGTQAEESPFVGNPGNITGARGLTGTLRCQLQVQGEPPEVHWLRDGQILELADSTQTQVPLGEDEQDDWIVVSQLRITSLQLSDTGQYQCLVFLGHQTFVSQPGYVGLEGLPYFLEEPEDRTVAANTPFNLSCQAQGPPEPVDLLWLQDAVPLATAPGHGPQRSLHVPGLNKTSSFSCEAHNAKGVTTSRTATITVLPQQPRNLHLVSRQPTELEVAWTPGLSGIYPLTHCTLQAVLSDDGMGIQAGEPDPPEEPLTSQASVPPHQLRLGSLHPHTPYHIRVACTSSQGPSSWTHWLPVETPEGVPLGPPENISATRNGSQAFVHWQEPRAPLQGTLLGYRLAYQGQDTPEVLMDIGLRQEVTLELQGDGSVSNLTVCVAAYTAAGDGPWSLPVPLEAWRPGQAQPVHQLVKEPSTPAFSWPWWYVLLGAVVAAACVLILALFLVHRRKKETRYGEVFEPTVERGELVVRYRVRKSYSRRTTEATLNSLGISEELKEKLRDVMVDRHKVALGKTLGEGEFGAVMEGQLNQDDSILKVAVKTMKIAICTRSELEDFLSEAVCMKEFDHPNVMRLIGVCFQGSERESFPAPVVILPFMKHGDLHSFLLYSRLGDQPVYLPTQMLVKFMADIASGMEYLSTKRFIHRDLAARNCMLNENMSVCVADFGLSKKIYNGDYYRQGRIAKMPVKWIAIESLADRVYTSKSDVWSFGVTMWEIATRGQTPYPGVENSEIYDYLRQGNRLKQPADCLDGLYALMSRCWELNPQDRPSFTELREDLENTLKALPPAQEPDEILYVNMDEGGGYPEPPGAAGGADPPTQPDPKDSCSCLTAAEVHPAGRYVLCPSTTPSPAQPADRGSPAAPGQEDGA
The following applies: read-out: percentage of control activity (POC), Axl. Put shortly:
(§1)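 Single-point screen: 10 μM, duplicate, 125-kinase panel; follow-up IC50 from 9-point titration in duplicate for chosen hits.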

The target of the next test is T2, Flt3 (Homo sapiens, UniProt P36888).
T2 construct: purchased Eurofins Pharma Discovery Services (KinaseProfiler; Cerep BioPrint panel)
T2 sequence (P36888 27-993): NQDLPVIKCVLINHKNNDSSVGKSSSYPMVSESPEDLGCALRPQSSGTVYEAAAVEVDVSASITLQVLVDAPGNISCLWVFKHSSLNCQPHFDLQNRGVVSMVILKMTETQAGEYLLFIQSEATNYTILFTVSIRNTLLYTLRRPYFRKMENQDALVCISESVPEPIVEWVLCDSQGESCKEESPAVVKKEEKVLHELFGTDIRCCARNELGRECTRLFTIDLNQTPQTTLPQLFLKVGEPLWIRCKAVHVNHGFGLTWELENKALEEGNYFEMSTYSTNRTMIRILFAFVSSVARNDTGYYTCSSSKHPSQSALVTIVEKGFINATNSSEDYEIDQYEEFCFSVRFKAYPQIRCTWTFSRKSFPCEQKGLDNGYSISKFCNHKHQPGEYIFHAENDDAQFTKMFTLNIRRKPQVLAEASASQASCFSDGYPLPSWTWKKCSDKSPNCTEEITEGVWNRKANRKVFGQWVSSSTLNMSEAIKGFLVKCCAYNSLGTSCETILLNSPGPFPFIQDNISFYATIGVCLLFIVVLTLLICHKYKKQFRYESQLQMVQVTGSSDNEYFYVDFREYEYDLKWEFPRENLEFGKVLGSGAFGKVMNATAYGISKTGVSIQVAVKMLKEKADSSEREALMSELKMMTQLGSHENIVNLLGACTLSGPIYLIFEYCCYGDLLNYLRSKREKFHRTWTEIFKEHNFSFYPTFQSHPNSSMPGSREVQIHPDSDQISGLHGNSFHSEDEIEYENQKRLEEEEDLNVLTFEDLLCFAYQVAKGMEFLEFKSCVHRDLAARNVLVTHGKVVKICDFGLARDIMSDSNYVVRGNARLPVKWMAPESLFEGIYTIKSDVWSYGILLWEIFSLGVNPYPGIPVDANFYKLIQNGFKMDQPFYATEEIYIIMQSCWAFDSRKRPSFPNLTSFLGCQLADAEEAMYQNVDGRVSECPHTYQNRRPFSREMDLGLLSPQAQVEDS
To be noted: read-out: percentage of control activity (POC), Flt3. Put shortly: as §1

The target in a further test is T3, LOK (Homo sapiens, UniProt O94804).
T3 construct: purchased Eurofins Pharma Discovery Services (KinaseProfiler; Cerep BioPrint panel)
T3 sequence (O94804 whole entry): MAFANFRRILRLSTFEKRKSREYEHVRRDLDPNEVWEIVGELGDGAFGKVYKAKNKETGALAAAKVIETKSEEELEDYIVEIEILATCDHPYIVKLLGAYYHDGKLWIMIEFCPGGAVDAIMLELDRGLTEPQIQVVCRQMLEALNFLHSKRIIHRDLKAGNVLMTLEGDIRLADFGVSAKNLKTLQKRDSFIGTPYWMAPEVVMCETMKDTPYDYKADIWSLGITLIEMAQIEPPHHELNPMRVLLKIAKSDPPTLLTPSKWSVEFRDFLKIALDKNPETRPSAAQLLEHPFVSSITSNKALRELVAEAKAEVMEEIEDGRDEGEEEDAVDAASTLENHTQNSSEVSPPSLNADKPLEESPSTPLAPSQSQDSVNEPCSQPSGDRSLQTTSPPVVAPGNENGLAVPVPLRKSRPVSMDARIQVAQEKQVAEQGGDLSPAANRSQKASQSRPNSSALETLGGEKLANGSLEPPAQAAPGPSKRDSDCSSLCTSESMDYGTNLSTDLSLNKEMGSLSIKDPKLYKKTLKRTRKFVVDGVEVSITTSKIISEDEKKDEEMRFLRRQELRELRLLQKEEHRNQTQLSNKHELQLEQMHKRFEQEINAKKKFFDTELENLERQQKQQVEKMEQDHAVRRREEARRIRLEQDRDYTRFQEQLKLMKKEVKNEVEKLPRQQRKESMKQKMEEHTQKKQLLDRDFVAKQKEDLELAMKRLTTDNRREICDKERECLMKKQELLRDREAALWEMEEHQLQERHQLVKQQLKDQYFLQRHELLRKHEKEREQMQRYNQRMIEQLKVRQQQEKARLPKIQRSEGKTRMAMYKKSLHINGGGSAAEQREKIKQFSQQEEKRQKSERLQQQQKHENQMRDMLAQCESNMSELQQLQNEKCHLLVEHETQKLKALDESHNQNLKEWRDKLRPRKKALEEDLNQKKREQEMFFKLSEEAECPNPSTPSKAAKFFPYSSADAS
To be noted: read-out: percentage of control activity (POC), LOK. The essentials: as §1

In a further test the target is T4, Met (Homo sapiens, UniProt P08581).
T4 construct: purchased Eurofins Pharma Discovery Services (KinaseProfiler; Cerep BioPrint panel)
T4 sequence (P08581 25-1390): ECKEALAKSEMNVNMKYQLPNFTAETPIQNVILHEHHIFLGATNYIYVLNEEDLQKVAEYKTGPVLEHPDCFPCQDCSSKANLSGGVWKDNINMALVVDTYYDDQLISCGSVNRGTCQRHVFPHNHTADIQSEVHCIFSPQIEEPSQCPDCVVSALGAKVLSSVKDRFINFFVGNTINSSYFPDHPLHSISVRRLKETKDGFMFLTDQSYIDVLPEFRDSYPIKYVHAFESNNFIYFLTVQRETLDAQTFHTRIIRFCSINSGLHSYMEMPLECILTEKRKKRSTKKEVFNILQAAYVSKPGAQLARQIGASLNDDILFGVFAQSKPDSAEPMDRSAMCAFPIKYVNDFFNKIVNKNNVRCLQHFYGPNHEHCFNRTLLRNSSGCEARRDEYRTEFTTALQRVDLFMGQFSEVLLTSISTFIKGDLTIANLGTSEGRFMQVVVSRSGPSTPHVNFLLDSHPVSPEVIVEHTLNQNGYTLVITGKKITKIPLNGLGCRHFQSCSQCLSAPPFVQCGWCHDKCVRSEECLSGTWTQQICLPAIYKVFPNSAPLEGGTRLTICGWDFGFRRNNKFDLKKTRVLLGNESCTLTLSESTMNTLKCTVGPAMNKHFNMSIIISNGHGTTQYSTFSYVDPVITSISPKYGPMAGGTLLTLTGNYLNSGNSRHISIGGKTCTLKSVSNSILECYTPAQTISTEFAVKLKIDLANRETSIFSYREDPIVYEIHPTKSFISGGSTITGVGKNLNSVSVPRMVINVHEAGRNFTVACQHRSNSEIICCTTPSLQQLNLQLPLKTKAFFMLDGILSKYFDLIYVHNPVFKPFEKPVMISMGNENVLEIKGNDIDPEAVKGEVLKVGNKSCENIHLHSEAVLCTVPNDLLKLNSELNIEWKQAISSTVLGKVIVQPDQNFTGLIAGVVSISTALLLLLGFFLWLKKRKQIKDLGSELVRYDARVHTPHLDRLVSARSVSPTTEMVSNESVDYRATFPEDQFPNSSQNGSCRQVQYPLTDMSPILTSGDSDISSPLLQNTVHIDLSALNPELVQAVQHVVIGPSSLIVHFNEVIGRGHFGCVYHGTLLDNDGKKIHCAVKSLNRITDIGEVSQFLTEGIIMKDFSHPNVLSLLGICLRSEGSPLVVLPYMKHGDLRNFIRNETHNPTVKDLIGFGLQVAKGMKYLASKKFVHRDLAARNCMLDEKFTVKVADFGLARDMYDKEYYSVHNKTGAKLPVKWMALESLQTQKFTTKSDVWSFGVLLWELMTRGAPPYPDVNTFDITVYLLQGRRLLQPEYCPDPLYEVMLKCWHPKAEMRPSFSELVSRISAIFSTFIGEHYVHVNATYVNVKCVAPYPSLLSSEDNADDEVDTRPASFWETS
To be noted: read-out: percentage of control activity (POC), Met. Put shortly:
as §1

A further test addresses T5, NLK (Homo sapiens, UniProt Q9UBE8).
T5 construct: purchased Eurofins Pharma Discovery Services (KinaseProfiler; Cerep BioPrint panel)
T5 sequence (Q9UBE8 1-527): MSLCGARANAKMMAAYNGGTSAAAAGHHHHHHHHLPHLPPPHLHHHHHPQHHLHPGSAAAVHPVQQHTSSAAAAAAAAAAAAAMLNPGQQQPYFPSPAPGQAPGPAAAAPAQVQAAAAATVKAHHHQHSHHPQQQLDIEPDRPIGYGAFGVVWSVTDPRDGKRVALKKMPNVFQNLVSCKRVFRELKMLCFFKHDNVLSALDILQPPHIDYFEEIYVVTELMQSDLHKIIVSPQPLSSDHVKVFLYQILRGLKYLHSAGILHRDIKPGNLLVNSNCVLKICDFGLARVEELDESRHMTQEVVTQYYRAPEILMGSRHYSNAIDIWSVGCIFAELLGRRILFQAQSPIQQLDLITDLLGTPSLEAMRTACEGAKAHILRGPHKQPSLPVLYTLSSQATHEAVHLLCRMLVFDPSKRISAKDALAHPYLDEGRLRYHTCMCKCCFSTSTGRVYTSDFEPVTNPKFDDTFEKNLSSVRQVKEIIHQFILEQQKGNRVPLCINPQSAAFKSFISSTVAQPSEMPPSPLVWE
The following applies: read-out: percentage of control activity (POC), NLK. The essentials:
as §1

In another test the target is T6, PI3K (p110d/p85a) (Homo sapiens, UniProt O00329).
T6 construct: Eurofins Pharma Discovery Services (contract assay service)
T6 sequence (O00329 whole entry): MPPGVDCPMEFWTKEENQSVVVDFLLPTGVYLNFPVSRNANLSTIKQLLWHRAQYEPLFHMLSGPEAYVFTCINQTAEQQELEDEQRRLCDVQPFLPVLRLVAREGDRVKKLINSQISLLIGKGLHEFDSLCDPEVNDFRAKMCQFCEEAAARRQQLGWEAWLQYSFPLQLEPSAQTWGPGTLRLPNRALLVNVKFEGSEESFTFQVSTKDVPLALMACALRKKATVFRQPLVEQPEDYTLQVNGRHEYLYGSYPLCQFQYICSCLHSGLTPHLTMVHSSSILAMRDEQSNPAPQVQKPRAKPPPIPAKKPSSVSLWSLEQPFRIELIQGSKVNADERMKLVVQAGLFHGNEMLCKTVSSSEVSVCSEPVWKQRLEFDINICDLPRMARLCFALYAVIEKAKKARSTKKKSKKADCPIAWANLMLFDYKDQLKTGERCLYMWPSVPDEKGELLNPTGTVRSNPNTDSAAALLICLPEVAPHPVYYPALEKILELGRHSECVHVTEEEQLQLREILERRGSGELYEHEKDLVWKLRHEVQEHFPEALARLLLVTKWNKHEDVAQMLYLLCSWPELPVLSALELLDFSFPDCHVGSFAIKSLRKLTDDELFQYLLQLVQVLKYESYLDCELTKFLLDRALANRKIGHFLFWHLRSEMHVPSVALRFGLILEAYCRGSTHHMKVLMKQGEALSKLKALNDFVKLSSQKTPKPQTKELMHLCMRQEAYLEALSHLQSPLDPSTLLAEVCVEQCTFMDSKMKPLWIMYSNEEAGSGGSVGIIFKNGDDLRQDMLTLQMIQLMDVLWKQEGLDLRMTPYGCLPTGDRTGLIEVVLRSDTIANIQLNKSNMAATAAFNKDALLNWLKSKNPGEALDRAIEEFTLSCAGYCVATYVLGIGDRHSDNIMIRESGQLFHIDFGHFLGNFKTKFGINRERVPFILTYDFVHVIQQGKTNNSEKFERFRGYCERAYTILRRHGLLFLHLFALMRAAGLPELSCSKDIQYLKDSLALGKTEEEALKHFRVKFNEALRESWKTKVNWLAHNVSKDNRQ
T6 sequence (P27986 whole entry partner): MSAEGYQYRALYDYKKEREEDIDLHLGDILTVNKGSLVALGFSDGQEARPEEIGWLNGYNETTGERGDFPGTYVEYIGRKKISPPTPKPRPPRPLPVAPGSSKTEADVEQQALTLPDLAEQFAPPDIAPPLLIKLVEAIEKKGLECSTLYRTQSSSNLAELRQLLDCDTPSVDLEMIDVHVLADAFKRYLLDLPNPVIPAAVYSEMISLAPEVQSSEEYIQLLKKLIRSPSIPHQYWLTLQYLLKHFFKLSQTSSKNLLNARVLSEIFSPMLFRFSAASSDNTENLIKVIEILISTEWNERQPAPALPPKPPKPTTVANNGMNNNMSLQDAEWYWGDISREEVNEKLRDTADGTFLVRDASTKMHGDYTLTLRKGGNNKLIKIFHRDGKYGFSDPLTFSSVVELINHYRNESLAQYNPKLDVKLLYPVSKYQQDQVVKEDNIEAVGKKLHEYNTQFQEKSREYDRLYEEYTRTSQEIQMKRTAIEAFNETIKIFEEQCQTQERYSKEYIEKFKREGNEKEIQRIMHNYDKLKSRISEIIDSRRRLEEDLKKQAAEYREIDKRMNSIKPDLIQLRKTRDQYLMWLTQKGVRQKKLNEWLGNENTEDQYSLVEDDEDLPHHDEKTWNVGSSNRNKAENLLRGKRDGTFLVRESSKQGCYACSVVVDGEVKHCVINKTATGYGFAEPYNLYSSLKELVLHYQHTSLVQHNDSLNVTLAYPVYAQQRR
The following applies: for remaining activity at 10 µM: read-out: percentage of control activity (POC), PI3K (p110d/p85a). Put shortly: as §1

The target in another test is T7, RIPK2 (Homo sapiens, UniProt O43353).
T7 construct: purchased Eurofins Pharma Discovery Services (KinaseProfiler; Cerep BioPrint panel)
T7 sequence (O43353 whole entry): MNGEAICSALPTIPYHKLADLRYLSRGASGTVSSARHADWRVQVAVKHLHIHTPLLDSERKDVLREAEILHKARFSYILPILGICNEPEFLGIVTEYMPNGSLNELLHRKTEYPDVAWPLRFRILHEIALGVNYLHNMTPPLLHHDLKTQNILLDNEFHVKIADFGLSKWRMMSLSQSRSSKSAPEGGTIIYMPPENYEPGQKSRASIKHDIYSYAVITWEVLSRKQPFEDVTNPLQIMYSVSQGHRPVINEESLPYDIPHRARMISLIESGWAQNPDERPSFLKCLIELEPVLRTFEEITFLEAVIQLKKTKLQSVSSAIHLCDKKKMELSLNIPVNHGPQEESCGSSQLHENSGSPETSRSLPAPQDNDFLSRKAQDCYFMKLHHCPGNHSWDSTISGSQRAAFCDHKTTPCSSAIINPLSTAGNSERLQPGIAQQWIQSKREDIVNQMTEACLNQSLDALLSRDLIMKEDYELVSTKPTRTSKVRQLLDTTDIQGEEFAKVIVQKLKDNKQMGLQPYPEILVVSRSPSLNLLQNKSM
To be noted: read-out: percentage of control activity (POC), RIPK2. The essentials:
as §1

For the molecule `CC(C)(C)N1CCC(c2cc(-c3ccc(F)cc3Cl)c3cc[n+]([O-])c(-c4c(Cl)cccc4Cl)c3n2)CC1` [compound 2], the remaining activity at 10 µM on Axl came out at 98%; on Flt3 it was 104%; at LOK, 107%; at Met, 83%; on NLK, 86%; on PI3K (p110d/p85a) (10 μM), 93%. Also, the remaining activity at 10 µM at RIPK2 was 61%.
Regarding `Cc1ccc(C(=O)NCC2CC2)cc1-c1ccc2c(c1)NC(=O)C21CCCC1` [compound 3], the remaining activity at 10 µM on Axl came out at 88%; at Flt3 it was 110%; at LOK it was 112%; at Met, 86%; at NLK, 99%; at PI3K (p110d/p85a) (10 μM), 90%. At RIPK2, the remaining activity at 10 µM amounted to 94%.
On to `Cn1cc(-c2cccc(-c3nc(C(=O)NC4C5CC6CC4CC(O)(C6)C5)c(N)nc3N)c2)cn1` (stereo not shown) [compound 4], for which the remaining activity at 10 µM on Axl stood at 59%; on Flt3, 95%; on LOK it was 109%; at Met it was 87%; on NLK, 85%; on PI3K (p110d/p85a) (10 μM), 21%. Besides, the remaining activity at 10 µM at RIPK2 was determined as 61%. Further, on PI3K (p110d/p85a) (10 μM, read-out: inhibition of PI3K (p110δ/p85α)), the inhibition at 10 µM stood at 79%. Further, the IC50 at PI3K (p110d/p85a) (biochemical dose response, duplicate, read-out: Inhibition of indicated activity (IC50, μM): PI3K (p110δ/p85α)) is 0.233 µM.
As to `CS(=O)(=O)N1CCN(c2ccc(Nc3ncc(C(N)=O)c(NC4CC4)n3)cc2)CC1` [compound 5], the remaining activity at 10 µM at Axl is 12%; at Flt3, 1%; at LOK, 14%; at Met it was 45%; on NLK, 83%; on PI3K (p110d/p85a) (10 μM), 90%. At RIPK2, the remaining activity at 10 µM came out at 81%.
With `COc1c(NC(=O)c2ccc(C)c(-c3nnc4c(NCC(C)(C)C)nccn34)c2)cc(C(C)(C)C)cc1NS(C)(=O)=O` [compound 7, reference compound], the remaining activity at 10 µM is 91% on Axl; 110% at Flt3; 135% on LOK; 109% at Met; 94% on NLK; 90% at PI3K (p110d/p85a) (10 μM). Besides, the remaining activity at 10 µM on RIPK2 was 100%.
